Measurements published in US9351955B2, “Compounds and pharmaceutical compositions thereof for the treatment of cystic fibrosis” (Galapagos NV, priority 2013, dated 2016).
Where “and” joins values, the source holds several entries; their conditions need not be identical. Equal entries are not always repeated. Where two headings read alike, the source gives them in different places.

Tests used:
Type in all cases: cell-based
CFTR-G178R = biological target: T1, CFTR-G178R (Homo sapiens, UniProt P13569, G178R); test: YFP-halide influx assay for the CFTR-G178R; settings: read-out: EC50 measured by YFP-halide influx assay for the CFTR-G178R
T1 construct: expressed in transfected cells
Source text: (§1) The YFP halide influx assay measures the functionality of the cystic fibrosis Transmembrane Conductance regulator (CFTR) channels. The assay is used to evaluate the capacity of compounds to increase the channel opening of existing mutant CFTR channels in the membrane. It makes use of the observation that the yellow fluorescent protein (YFP) variant YFP H148Q, I152L, F47L has its fluorescence substantially quenched by halide ions like Cl^− and I^−. (Galietta et al., 2001)
(§2) For this purpose, HEK293-cells are seeded in 96 well plates. During seeding, the cells are reverse-transfected with plasmid vectors that direct the expression of the CFTR G551D mutant and of the YFP reporter. Cells are incubated at 37° C., 5% CO2 for 24 hours so as to allow for sufficient expression of the CFTR protein.
(§3) The I^−-induced quenching of fluorescence is recorded immediately after injection of I^− for 7 seconds. The capacity of a compound to increase the channel opening is directly correlated with the decrease in fluorescence, and is expressed as (1−(fluorescence after 7 seconds (F)/fluorescence before injection (F0))) and an EC50 can be derived from a (1−F/F0) vs compound concentration plot.
(§4) Similar YHA assays were developed for other channel gating defective or channel conductance defective CFTR mutants to determine effect of compound on channel activity. Examples of mutants are G178R, G1349D, S549N, R117H, R334W. This assay is also used for additional class I CFTR mutants, including G542X, W1282X; class II mutants including N1303K, and for class III mutants including S1251N; or wild-type CFTR.

CFTR-R117H = biological target: T2, CFTR-R117H (Homo sapiens, UniProt P13569, R117H); test: YFP-halide influx assay for the CFTR-R117H; settings: CFTR-R117H mutant; read-out: EC50 measured by YFP-halide influx assay for the CFTR-R117H
T2 construct: expressed in transfected cells
Source text: as §1, §2, §3, §4

CFTR-G1349D = biological target: T3, CFTR-G1349D (Homo sapiens, UniProt P13569, G1349D); test: YFP-halide influx assay for the CFTR-G1349D; settings: CFTR-G1349D mutant; read-out: EC50 measured by YFP-halide influx assay for the CFTR-G1349D
T3 construct: expressed in transfected cells
Source text: as §1, §2, §3, §4

CFTR ΔF508 mutant [1] = biological target: T4, CFTR ΔF508 mutant (Homo sapiens, UniProt P13569, DEL508-508); test: YFP-halide influx assay for the CFTR-ΔF508 mutation (384 well, CFBE41o- cells, FDSS/μCell); settings: forskolin 10.67 μM, fluorescence after 36 seconds, read-out: EC50 measured by YFP-halide influx assay for the CFTR-ΔF508
T4 construct: expressed in transfected cells; host or cells: CFBE41o- (adenoviral transduction)
Procedure, shortened: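 CFBE41o- cells were adenovirally transduced with ΔF508 CFTR and the YFP H148Q/I152L reporter. Cells were then held 24 h at 27 °C or treated 24 h at 37 °C with a CFTR modulator. Iodide-induced quench was recorded for 2 min, and EC50 was derived from 1−F/F0 at 36 s against compound concentration.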

CFTR-S549N = biological target: T5, CFTR-S549N (Homo sapiens, UniProt P13569, S549N); test: YFP-halide influx assay for the CFTR-S549N; settings: CFTR-S549N mutant; read-out: EC50 measured by YFP-halide influx assay for the CFTR-S549N
T5 construct: expressed in transfected cells
Source text: as §1, §2, §3, §4

CFTR G551D mutant = biological target: T6, CFTR G551D mutant (Homo sapiens, UniProt P13569, G551D); test: YFP-halide influx assay for the CFTR-G551D mutation (HEK293 cells); settings: read-out: EC50 measured by YFP-halide influx assay for the CFTR-G551D
T6 construct: expressed in transfected cells; host or cells: HEK293 (reverse transfection with plasmids)
Procedure, shortened: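 HEK293 cells reverse-transfected with CFTR G551D and halide-sensitive YFP, expressed 24 h at 37 °C. Iodide-induced fluorescence quench recorded for 7 s after I^− injection; response as 1−F/F0, EC50 from concentration plot.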

CFTR ΔF508 mutant [2] = biological target: T4, CFTR ΔF508 mutant; test: YFP-halide influx assay for the CFTR-ΔF508 mutation (96 well, CFBE41o- cells); settings: read-out: EC50 measured by YFP-halide influx assay for the CFTR-ΔF508
Source text: 6.1. YFP-Halide Influx Assay for the CFTR-ΔF508 Mutation
as §1, with “channels in the cystic fibrosis bronchial epithelium cell line CFBE41o-.” for “channels.”, “open probability” for “channel opening”, “existing” for “existing mutant”, “I152L” for “I152L, F47L”, “2001; Nagai et al., 2002)” for “2001)”
For this purpose, CFBE410-cells are seeded in 96 well plates (6000 CFBE cells/well). One day after seeding, the CFBE cells are transduced with adenoviral vectors that direct the expression of the CFTR ΔF508 mutant and of the YFP reporter. Cells are incubated at 27° C., 5% CO2 for 24 hours so as to allow for the proper folding and migration to the membrane of the CFTR channel or treated with a CFTR modulator during 24 h at 37° C.
as §3, with “[…]” for “I^−-induced”, “(1-(fluorescence” for “(1−(fluorescence”

CFTR ΔF508 = biological target: T7, CFTR ΔF508 (Homo sapiens, UniProt P13569, DEL508-508); test: TECC assay, primary bronchial epithelial cells from CF patients homozygous for CFTR ΔF508; settings: for ΔIsc / Current increase: TECC assay; for Current increase: compound at 50 nM, difference between ΔIsc with compound and ΔIsc DMSO (baseline); for activity on the CFTR protein in TECC assay (ΔISC vs DMSO baseline): at 3 μM, or 50 nM, or 50/100/200 nM; for EC50: primary bronchial epithelial cells, CFTR ΔF508, several values in a cell = repeat determinations
T7 construct: host or cells: primary bronchial epithelial cells from CF patients homozygous for ΔF508, pre-treated with VX809
Experimental: 7.2.1. Primary Bronchial Epithelial Cells Protocol
The TECC (Tranepithelial Clamp Circuit, EP-design) assay measures the functionality of the cystic fibrosis Transmembrane Conductance regulator (CFTR) by measuring the short circuit current (ISC) generated over the basolateral and apical membrane of lung epithelial cells. In TECC the transepithelial potential PD and transepithelial resistance (Rt) are measured in an open circuit and transformed to ISC using Ohm's law. 24 wells can be measured simultaneously allowing a higher throughput compared to Ussing chambers.
For this purpose, bronchial epithelial cells isolated from CF patients homozygous for the CFTR ΔF508 mutation (hAEC-CF, Epithelix) are plated on type IV collagen-coated Transwell supports (Costar). Human airway epithelia are generated by provision of an air-liquid interface for 21 days to form well-differentiated polarized cultures that resemble in vivo pseudo-stratified ciliated epithelium (Fulcher et al., 2005). In the case of the homozygous ΔF508 CFTR samples, the differentiated cells are treated with 3 μM VX809 (2626 South Loop West, Suite 225, Houston, Tex. 77054 USA, Cat n#51565) to allow sufficient expression of properly folded CFTR protein on the membrane (48 hours basolateral treatment and 24 hours apical treatment), prior to electrophysiological recordings. […] G551D/ΔF508, differentiated cells are used as such for the recordings.
Information on the compounds can be retrieved on the homozygous ΔF508 CFTR samples looking at increased CFTR activity when compounds are added in an acute mode or in a chronic mode. On G551D/ΔF508 CFTR heterozygous samples compounds are added in an acute mode to the differentiated cells.
For the acute mode, for electrophysiological recording, the human airway epithelia are mounted in the TECC heating plate for electrophysiological measurement and kept at 37° C. The epithelia are bathed in a NaCl-Ringer solution (120 mM NaCl, 25 mM NaHCO3, 1.2 mM CaCl2, 1.2 mM MgCl2, 0.8 mM KH2PO4, 0.8 mM K2HPO4, pH 7.4, 5 mM glucose) on both the basolateral and apical sides. Apical amiloride is used to inhibit the endogenous ENaC currents while forkolin is applied on both apical and basolateral side to stimulate CFTR. After forskolin triggering, compounds are added on both sides to test their potential for increasing CFTR gating. Measurements are done during a 20 minute timeframe with recordings every 2 minutes. The increase in ISC is used as a measure for the increased CFTR activity, EC50 values can be generated by measuring impact of different concentrations of compound on ISC on primary cells, for this purpose each transwell is treated with a different compound concentration. Inh-172, an inhibitor specific for CFTR, is used to test the specificity of the tested compounds.
For the chronic mode, the differentiated cells are treated with 3 μM VX809 (2626 South Loop West, Suite 225, Houston, Tex. 77054 USA, Cat n#51565) and potentiator compounds at different concentrations (48 hours basolateral treatment and 24 hours apical treatment), prior to electrophysiological recordings. For electrophysiological recording, the human airway epithelia are mounted in the TECC heating plate for electrophysiological measurement and kept at 37° C. […]

[3] = comparative compounds, HEK293 cells
[4] = compounds of the invention, 96 well, forskolin 10.67 μM
[5] = HEK293 cells expressing CFTR G551D and YFP reporter, forskolin 10.67 μM

T6 sequence (P13569 whole entry G551D): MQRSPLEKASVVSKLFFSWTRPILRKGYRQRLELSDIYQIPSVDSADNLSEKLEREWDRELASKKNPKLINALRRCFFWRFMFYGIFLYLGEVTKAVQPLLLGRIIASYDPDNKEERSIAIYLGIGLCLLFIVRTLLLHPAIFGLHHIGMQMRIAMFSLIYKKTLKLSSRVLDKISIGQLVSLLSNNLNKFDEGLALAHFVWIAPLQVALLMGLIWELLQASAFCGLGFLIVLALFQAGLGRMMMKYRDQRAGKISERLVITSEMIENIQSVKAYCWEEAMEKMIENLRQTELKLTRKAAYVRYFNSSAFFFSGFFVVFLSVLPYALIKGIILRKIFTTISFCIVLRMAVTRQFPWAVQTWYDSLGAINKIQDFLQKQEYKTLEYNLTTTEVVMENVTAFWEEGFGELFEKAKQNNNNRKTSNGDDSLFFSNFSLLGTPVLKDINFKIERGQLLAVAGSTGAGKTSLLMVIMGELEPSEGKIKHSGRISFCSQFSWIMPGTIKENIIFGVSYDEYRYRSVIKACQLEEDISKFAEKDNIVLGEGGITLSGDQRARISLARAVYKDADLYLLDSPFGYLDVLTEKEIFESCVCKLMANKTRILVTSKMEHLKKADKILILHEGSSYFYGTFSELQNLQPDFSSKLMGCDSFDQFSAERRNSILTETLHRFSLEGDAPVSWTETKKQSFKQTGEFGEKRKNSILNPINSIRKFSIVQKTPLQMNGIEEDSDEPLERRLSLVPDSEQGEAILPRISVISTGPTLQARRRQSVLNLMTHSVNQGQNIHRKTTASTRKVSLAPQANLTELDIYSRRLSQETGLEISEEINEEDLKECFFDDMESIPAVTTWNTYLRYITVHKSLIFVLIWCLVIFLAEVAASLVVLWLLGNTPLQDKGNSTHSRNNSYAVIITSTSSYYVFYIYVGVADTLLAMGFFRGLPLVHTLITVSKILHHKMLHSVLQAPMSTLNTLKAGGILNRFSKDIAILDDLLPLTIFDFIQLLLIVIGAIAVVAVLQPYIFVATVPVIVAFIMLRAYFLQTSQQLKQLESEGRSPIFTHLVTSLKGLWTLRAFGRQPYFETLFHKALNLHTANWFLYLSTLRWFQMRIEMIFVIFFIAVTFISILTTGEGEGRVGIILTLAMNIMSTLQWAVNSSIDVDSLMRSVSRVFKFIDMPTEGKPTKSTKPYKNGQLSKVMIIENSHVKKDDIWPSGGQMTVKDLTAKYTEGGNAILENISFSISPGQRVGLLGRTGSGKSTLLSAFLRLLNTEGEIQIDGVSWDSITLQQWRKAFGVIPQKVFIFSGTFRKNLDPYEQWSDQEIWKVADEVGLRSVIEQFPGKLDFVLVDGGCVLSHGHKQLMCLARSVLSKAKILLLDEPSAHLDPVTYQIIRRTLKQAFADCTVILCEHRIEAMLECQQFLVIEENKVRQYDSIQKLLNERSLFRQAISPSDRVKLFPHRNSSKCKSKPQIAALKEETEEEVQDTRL
T7 sequence (P13569 with tags, fused parts or gaps DEL508-508): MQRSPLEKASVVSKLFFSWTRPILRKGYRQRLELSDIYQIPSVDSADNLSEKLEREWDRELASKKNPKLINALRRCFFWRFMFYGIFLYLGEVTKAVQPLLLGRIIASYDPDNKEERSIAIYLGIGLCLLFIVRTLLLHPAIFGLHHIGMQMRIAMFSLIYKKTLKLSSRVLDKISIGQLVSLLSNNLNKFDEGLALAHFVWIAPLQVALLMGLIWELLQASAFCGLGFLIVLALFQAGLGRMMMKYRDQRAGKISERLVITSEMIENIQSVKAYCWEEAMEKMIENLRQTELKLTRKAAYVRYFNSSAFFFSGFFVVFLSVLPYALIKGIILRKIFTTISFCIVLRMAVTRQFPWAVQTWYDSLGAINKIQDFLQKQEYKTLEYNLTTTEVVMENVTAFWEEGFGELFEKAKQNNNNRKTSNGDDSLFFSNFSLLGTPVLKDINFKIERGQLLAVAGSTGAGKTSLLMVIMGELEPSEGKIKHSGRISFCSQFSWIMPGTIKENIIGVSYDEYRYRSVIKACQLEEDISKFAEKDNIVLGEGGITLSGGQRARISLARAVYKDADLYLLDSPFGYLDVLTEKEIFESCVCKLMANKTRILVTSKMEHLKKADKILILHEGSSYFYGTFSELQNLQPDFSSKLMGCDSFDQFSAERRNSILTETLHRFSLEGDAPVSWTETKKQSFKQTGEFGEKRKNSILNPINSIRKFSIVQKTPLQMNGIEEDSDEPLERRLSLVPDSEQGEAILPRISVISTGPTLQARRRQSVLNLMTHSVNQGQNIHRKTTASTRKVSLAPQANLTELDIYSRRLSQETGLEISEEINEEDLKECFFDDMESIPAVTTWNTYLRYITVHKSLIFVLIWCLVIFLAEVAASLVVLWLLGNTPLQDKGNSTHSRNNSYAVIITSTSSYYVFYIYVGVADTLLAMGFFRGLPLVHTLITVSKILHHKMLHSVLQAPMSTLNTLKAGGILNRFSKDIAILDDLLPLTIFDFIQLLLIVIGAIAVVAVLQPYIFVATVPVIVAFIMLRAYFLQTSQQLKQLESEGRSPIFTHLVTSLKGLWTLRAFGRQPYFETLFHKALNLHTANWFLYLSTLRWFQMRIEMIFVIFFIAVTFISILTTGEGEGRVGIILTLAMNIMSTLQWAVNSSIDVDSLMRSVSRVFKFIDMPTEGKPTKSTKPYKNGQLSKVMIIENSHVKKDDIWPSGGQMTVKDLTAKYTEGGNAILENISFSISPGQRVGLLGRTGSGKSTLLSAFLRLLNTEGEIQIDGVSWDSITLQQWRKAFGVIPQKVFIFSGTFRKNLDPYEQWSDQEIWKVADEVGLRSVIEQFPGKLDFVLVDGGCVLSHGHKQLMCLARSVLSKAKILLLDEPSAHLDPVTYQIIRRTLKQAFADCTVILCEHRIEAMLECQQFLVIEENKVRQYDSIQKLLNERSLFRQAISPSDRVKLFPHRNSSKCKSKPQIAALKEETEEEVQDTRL
T4 sequence (P13569 with tags, fused parts or gaps DEL508-508): as above
T2 sequence (P13569 whole entry R117H): as the sequence (P13569 whole entry G551D) above, with R117H, D551G counted along it
T3 sequence (P13569 whole entry G1349D): as the sequence (P13569 whole entry G551D) above, with D551G, G1349D counted along it
T1 sequence (P13569 whole entry G178R): as the sequence (P13569 whole entry G551D) above, with G178R, D551G counted along it
T5 sequence (P13569 whole entry S549N): as the sequence (P13569 whole entry G551D) above, with S549N, D551G counted along it

SMILES | EC50 (CFTR ΔF508 mutant [1]) [nM] | EC50 (CFTR ΔF508 mutant [2]; comparative compounds) [nM] | ΔIsc (CFTR ΔF508; compound at 50 nM (Table XV)) [μA/cm^2] | ΔIsc (CFTR ΔF508; compound at 50 nM (Table XVI)) [μA/cm^2] | Current increase (CFTR ΔF508) [μA/cm^2] | ΔIsc (CFTR ΔF508; compound at 100 nM (Table XVI)) [μA/cm^2] | ΔIsc (CFTR ΔF508; compound at 200 nM (Table XVI)) [μA/cm^2] | activity on the CFTR protein in TECC assay (ΔISC vs DMSO baseline) (CFTR ΔF508) | other results
CC(C)C(O)C(=O)Nc1sc2c(c1C(N)=O)CC(C)(C)OC2(C)C (single isomer, unassigned) [Compound 52, 2-[[2-hydroxy-3-methyl-butanoyl]amino]-5,5,7,7-tetramethyl-4H-thieno[2,3-c]pyran-3-carboxamide] | 1.97 |  |  |  |  |  |  |  | EC50 (CFTR-G178R): 39.7 nM; EC50 (CFTR-R117H): 11.4 nM; EC50 (CFTR-G1349D): 60.9 nM; EC50 (CFTR-S549N): 86.5 nM
CN1CCc2c(sc(NC(=O)c3ccccc3O)c2C(N)=O)C1 [A, 2-(2-hydroxybenzamido)-6-methyl-4,5,6,7-tetrahydrothieno[2,3-c]pyridine-3-carboxamide, reference compound] |  | > 10000 | −0.3248 | −0.3807 | −0.0559 | −0.5401 | −0.6598 | no such activity | EC50 (CFTR G551D mutant; [3]): > 10000 nM
NC(=O)c1c(NC(=O)c2ccccc2Cl)sc2c1CCCC2 [B, 2-(2-chlorobenzamido)-4,5,6,7-tetrahydrobenzo[b]thiophene-3-carboxamide, reference compound] |  | < 370 | 0.1807 | 0.1807 | 0.5055 | 0.4762 | 0.8022 | no such activity | 
CC1(C)Cc2c(sc(NC(=O)C(C)(C)O)c2C(N)=O)C(C)(C)O1 [Compound 6, 2-(2-hydroxy-2-methylpropanamido)-5,5,7,7-tetramethyl-5,7-dihydro-4H-thieno[2,3-c]pyran-3-carboxamide] | 16.2 |  |  |  |  |  |  |  | EC50 (CFTR ΔF508 mutant [2]; [4]): 75.8 nM; EC50 (CFTR ΔF508): 165 nM and 60.9 nM
CC1(C)Cc2c(sc(NC(=O)c3ccc(F)cc3O)c2C(N)=O)C(C)(C)O1 [Compound 21, 2-(4-fluoro-2-hydroxybenzamido)-5,5,7,7-tetramethyl-5,7-dihydro-4H-thieno[2,3-c]pyran-3-carboxamide] | 0.71 |  |  |  |  |  |  |  | EC50 (CFTR G551D mutant; [5]): 57.5 nM; EC50 (CFTR ΔF508 mutant [2]; [4]): 6.46 nM; EC50 (CFTR ΔF508): 16.3 nM
CC1(C)Cc2c(sc(NC(=O)c3ccnn3COP(=O)(O)O)c2C(N)=O)C(C)(C)O1 [Compound 92, [5-[(3-carbamoyl-5,5,7,7-tetramethyl-4H-thieno[2,3-c]pyran-2-yl)carbamoyl]pyrazol-1-yl]methyl dihydrogen phosphate] |  |  |  |  |  |  |  |  | EC50 (CFTR-G178R): 82.2 nM
CC1(C)Cc2c(sc(NC(=O)c3n[nH]cc3C3COCCO3)c2C(N)=O)C(C)(C)O1 (centres unmarked) [Compound 95, N-(3-carbamoyl-5,5,7,7-tetramethyl-4H-thieno[2,3-c]pyran-2-yl)-4-(1,4-dioxan-2-yl)-1H-pyrazole-3-carboxamide] | 24.5 |  |  |  |  |  |  |  | EC50 (CFTR-R117H): 106 nM; EC50 (CFTR G551D mutant; [5]): 1060 nM; EC50 (CFTR-G1349D): 81.4 nM; EC50 (CFTR-S549N): 291 nM
NC(=O)c1c(NC(=O)c2cc[nH]n2)sc2c1CCOC2 [E, N-(3-carbamoyl-5,7-dihydro-4H-thieno[2,3-c]pyran-2-yl)-1H-pyrazole-3-carboxamide, reference compound] |  | 479 | 0.1663 | 0.1663 | 0.4911 | −0.0318 | 0.5241 | no such activity | EC50 (CFTR G551D mutant; [3]): 2900 nM
